Read-outs that look alike come from different tables or passages of the source.
Assays:
[1] = target: EZH2 (Homo sapiens, UniProt Q15910); assay: EZH2 assay: rPRC2 methyltransferase, 3H SAM FlashPlate; assay type: biochemical; conditions: 0.2 μM 3H SAM, 2 nM EZH2
Method: (§1) Assays were carried out by mixing rPRC2 together with biotinylated oligonucleosome substrates in the presence of the radio-labeled enzyme co-factor, S-adenosyl-L-methionine (^3H SAM) (Perkin Elmer) and monitoring the enzymatically mediated transfer of tritiated methyl groups from ^3H SAM to histone lysine residues. The amount of resulting tritiated methyl histone product was measured by first capturing the biotinylated oligonucleosomes in streptavidin (SAV) coated FlashPlates (Perkin Elmer), followed by a wash step to remove un-reacted ^3H SAM, and then counting on a TopCount NXT 384 well plate scintillation counter (Perkin Elmer). The final assay conditions for EZH2 were as follows: 50 mM Tris Buffer pH 8.5, 1 mM DTT, 69 μM Brij-35 detergent, 5.0 mM MgCl2, 0.1 mg/mL BSA, 0.2 μM ^3H SAM, 0.2 μM biotinylated oligonucleosomes, 3.6 μM H3K27me3 peptide and 2 nM EZH2.
(§2) A 12.5 μL volume of the HMT enzyme, H3K27me3 peptide and oligonucleosome substrate in assay buffer was added to each well of the assay plate using a Multidrop Combi (Thermo-Fisher). Compounds were pre-incubated with the enzyme for 20 min, followed by initiation of the methyltransferase reaction by addition of 12.5 μL of ^3H SAM in assay buffer (final volume=25 μL). The final concentrations of compounds ranged from a top default concentration of 80 μM down to 0.16 μM in ten 2-fold dilution steps. Reactions were carried out for 60 minutes and quenched with 20 μL per well of 1.96 mM SAH, 50 mM Tris pH 8.5, 200 mM EDTA. Stopped reactions were transferred to SAV coated Flash-plates (Perkin Elmer), incubated for 120 min, washed with a plate washer, and then read on the TopCount NXT (1.0 min/well) to measure the amount of methyl histone product formed during the reaction.

[2] = target: Y641N EZH2 (Homo sapiens, UniProt Q15910, Y641N); assay: Y641N EZH2 assay, H3K27Me2 oligonucleosomes as substrate; assay type: biochemical
Method: as §1, §2

[3] = system: H3K27me3 mark in HeLa cells; assay: H3K27me3 MSD Hela Assay; assay type: cell-based
Method: Trypsinized HeLa cells were counted and diluted in 10% DMEM (Life Technologies, Cat. #10569) to 5000 cells/75 μL. Seventy-five μL of cells were place in each well of a 96-well flat-bottomed plate and incubated at 37° C. for 4 hours. Twenty-five μL of test compound (at various concentrations) was added to the cells and incubation continued at 37° C. for 96 hours. Media was then removed and the cells rinsed once with ice cold PBS. Forty μL of ice-cold MSD Buffer AT (10 mM HEPES, pH 7.9, 5 mM MgCl2, 0.25M sucrose, Benzonase (1:10000), 1% Triton X-100 supplemented with fresh 1× Protease Inhibitor cocktail and 1 mM 4-(2-Aminoethyl)benzenesulfonyl fluoride hydrochloride (AEBSF)) was added to each well and the plates placed on ice for 30 minutes. Ten μL of 5M NaCl was then added to each well and incubation on ice continued for another 15 minutes. The material in each well was suspended pipetting up and down and then transferred to a new 96 well plate. […]
The antibody mix was then removed and the wells washed with Blocker A. One hundred-fifty μL of freshly prepared 1×MSD Read Buffer (Meso-Scale Discovery; Cat #R927C-2) was then added to each well and the plates read on a MSD Sector 2400 Plate Reader.
Data was analyzed using Assay Assistant (Constellation Pharmaceuticals In-house product) and Activity Base (IDBS Ltd, Surrey, UK) template. […] Readout of DMSO wells were used to normalize the data. […]

[4] = system: H3K27me3 mark in HeLa cells; assay: H3K27me3 Alpha Hela Assay (AlphaLISA); assay type: cell-based; conditions: 72 hrs incubation
Method: H3K27me3 Alpha Hela Assay (AlphaLISA).
Ten different doses of each test compound (in a series of 3-fold dilutions) were plated in duplicate 384-well tissue culture treated plates (Catalog #781080; Greiner Bio One; Monroe, N.C.). Hela cells grown in culture were trypsinized and counted using a Countess® cell counter (Catalog #C10281; Life Technologies, Grand Island, N.Y.). Cell were diluted to 67,000 cells per mL in 10% DMEM (Catalog #10569-010 Life Technologies, Grand Island, N.Y.) and 15 μL (1,000 cells) were plated into each well using the Biotek MicroFlo™ Select Dispenser (BioTek Instruments, Inc. Vermont, USA),) of the 384-well plate. Plates were incubated at 37° C./5% CO2 for 72 hrs. One of the duplicate plates was processed for HeLa assay and the other for viability.
To the plate processed for AlphaLISA was added 5 μL per well Cell-Histone Lysis buffer (1×) (Catalog #AL009F1 Perkin Elmer; Waltham, Mass.) and the plate was incubated at RT for 30 minutes on a plate shaker with low speed (Model #4625-Q Thermo Scientific; Waltham, Mass.). Then, 10 μL per well Histone Extraction buffer (catalog #AL009F2; Perkin Elmer; Waltham, Mass.) was added and the plate further incubated at RT for 20 min on plate shaker with low speed. To each well was then added 10 μL per well of a 5× mix of anti-K27me3 acceptor beads plus Biotinylated anti-Histone H3 (C-ter) Antibody (diluted to 3 nM final) (Catalog #AL118 Perkin Elmer; Waltham, Mass.). Dilution of the acceptor beads and then anti-Histone H3 was with 1× Histone Detection buffer (Catalog #AL009F3 Perkin Elmer; Waltham, Mass.) which was produced diluted from the 10× stock provided. The plate was sealed with an aluminum plate sealer and incubated at 23° C. for 60 min. […] The plates were then read using an EnVision-Alpha Reader (model #2104 Perkin Elmer; Waltham, Mass.).
Data from both assays was analyzed using Assay Assistant (Constellation Pharmaceuticals In-house product) and Activity Base (IDBS Ltd, Surrey, UK) template. […] Readout of DMSO wells were used to normalize the data. […]

Chain of Y641N EZH2 (Q15910 whole entry Y641N): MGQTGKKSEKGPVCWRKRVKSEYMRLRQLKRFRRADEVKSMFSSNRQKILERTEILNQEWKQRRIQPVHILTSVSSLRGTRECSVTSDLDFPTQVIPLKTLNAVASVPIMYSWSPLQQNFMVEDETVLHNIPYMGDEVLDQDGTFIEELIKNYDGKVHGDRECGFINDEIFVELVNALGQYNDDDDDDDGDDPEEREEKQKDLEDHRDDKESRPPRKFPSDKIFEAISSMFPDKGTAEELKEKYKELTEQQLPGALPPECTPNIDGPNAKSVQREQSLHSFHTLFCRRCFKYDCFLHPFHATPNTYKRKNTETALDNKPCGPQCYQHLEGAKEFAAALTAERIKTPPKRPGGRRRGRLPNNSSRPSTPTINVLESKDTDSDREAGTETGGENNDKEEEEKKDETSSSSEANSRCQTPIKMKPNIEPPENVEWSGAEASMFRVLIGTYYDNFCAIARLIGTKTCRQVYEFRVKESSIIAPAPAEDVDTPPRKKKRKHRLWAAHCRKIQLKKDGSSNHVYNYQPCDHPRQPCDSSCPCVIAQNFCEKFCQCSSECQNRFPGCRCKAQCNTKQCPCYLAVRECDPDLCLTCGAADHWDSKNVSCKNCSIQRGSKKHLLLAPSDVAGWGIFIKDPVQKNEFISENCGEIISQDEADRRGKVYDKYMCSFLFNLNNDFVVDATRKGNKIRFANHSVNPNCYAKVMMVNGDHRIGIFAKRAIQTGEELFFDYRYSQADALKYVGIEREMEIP
Chain of Y641N EZH2 (O75530 whole entry partner): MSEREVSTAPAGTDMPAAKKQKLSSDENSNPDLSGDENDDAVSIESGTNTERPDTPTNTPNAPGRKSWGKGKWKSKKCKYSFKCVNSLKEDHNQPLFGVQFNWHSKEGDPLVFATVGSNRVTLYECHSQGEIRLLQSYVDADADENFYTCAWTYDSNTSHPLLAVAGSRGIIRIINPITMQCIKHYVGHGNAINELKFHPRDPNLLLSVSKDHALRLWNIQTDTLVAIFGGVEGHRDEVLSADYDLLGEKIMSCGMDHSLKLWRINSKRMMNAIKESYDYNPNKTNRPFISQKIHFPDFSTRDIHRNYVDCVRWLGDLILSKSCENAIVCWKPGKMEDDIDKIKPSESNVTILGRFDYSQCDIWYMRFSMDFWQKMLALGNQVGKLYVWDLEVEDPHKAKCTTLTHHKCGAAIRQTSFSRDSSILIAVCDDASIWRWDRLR
Chain of Y641N EZH2 (Q15022 whole entry partner): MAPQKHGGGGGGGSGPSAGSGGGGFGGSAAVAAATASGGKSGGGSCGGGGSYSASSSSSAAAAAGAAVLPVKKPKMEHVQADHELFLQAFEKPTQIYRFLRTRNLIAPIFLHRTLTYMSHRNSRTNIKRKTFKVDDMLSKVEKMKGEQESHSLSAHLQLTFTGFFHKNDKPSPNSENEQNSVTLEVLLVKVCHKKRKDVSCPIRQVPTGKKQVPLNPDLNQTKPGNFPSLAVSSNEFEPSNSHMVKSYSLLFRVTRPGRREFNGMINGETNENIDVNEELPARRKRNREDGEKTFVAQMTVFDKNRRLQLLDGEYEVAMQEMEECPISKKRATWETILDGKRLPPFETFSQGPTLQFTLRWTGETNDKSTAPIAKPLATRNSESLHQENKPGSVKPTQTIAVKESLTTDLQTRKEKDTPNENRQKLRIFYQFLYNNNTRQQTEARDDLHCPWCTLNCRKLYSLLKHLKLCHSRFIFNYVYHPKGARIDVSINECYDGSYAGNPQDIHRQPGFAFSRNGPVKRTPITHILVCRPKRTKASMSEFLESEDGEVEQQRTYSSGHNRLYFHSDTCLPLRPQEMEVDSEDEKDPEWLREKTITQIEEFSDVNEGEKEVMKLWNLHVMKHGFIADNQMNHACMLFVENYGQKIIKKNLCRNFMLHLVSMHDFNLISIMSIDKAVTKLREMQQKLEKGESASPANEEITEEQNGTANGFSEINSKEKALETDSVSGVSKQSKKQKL
Chain of EZH2 (Q15910 whole entry): as the sequence (Q15910 whole entry Y641N) above, with N641Y counted along it
Chain of EZH2 (O75530 whole entry partner): as the sequence (O75530 whole entry partner) above
Chain of EZH2 (Q15022 whole entry partner): as the sequence (Q15022 whole entry partner) above

## COc1cc(C)[nH]c(=O)c1CNC(=O)c1c(C)n(C(C)C2CCC(F)(F)CC2)c2ccccc12 (racemic) [Compound 304, (±)-1-(1-(4,4-difluorocyclohexyl)ethyl)-N-((4-methoxy-6-methyl-2-oxo-1,2-dihydropyridin-3-yl)methyl)-2-methyl-1H-indole-3-carboxamide]
[1]; EZH2 IC50, rPRC2, biotinylated oligonucleosomes
  IC50: < 100 nM
[2]
  IC50: < 100 nM
[3]; Homo sapiens
  EC50: < 400 nM
[4]; Homo sapiens
  EC50: < 400 nM

## CCS(=O)(=O)N1CCC(C(C)n2c(C)c(C(=O)NCc3c(OC)cc(C)[nH]c3=O)c3ccccc32)CC1 (single isomer, unassigned) [Compound 345, (R or S)-1-(1-(1-(ethylsulfonyl)piperidin-4-yl)ethyl)-N-((4-methoxy-6-methyl-2-oxo-1,2-dihydropyridin-3-yl)methyl)-2-methyl-1H-indole-3-carboxamide]
[4]; Homo sapiens
  EC50: < 400 nM

## COc1cc(C)[nH]c(=O)c1CNC(=O)c1c(C)n(C(C)C2CCCNC2)c2ccccc12 (stereo not drawn) [Compound 315]
[3]
  EC50: > 10000 nM

## (R or S)-1-(1-(4-(isopropylsulfonyl)cyclohexyl)ethyl)-N-((4-methoxy-6-methyl-2-oxo-1,2-dihydropyridin-3-yl)methyl)-2-methyl-1H-indole-3-carboxamide [Compound 355]
[1]; rPRC2, biotinylated oligonucleosomes, read-out: EZH2 IC50
  IC50: < 100 nM
[2]; Y641N EZH2 mutant enzyme, H3K27Me2 oligonucleosomes, read-out: Y641N EZH2 IC50
  IC50: < 100 nM
[4]
  EC50: < 400 nM
